# Entries after “also recorded” stand apart in the source; their conditions may differ.
# How the values were obtained:
# Type in all cases: cell-based, human
# [1] = tested on: normal T lymphocytes from healthy donor; assay: Flow cytometry, % specific induced apoptosis in normal T lymphocytes; conditions: normal T cells from healthy donors, 100 nM, 48 hours
# Description: (§1) FIG. 21: FD-895 and PLAD induce apoptosis in CLL cells not ONLY independently of Tp53 but also independently of SF3B1 mutational status: Primary leukemia B cells from CLL patient with SF3B1 wild, SF3B1 mutation, 17p DEL and normal B and T lymphocytes from healthy donor were incubated with FD-895 and PLAD with 100 nM for 48 hours. After incubation, the samples were harvested and % SIA was measured by flow cytometry as described above. […] Each dots represents number of CLL patient sample and normal B or T cells.
# (§2) Apoptotic and viable cells were discriminated via flow cytometry of cells stained with 3,3′ dihexyloxacarbocyanine iodide (DiOC6) (Molecular Probes, Eugene, Oreg., USA) and propidium iodine (Sigma, St Louis, Mo., USA), as described.^3 Using this method viable cells exclude PI and stain brightly positive for DiOC6.
# GAPDH = assay: RT-PCR of spliced and unspliced mRNA (intron retention) in CLL cells, housekeeping gene; conditions: for intron retention/splicing inhibition of GAPDH: 100 nM, 15 min to 4 hours; for splicing inhibition of housekeeping gene GAPDH: 4 hours, same concentrations
# Description: (§3) FIG. 23: FD-895 and PLAD induced inhibition of splicing in CLL: RT-PCR for analysis of spliced and unspliced mRNAs. CLL cells treated with FD-895, PLAD (10, 100 nM), chemotherapeutic agent like bendamustine (33, 100 μM) and F-Ara-A (3, 10, 33 μM) for 4 hours. RT-PCR for DNAJB1 was performed with primers spanning two exons; products were analyzed on ethidium bromide-stained agarose gels (2%) to visualize the correct size of the unspliced mRNAs. […] The exon structure of DNAJB1 gene is indicated. G, human genomic DNA was used as a control; U, unspliced mRNA; S, spliced mRNA.
# (§4) CLL cells were treated with 10 and 100 nM of FD-895 and PLAD, 33 and 100 μM of bendamustine and 3, 10, and 33 μM of F-Ara-A for 4 h. Normal B and CLL cells were treated with 100 nM of FD-895 and PLAD and 10 μM of F-Ara-A for 15 minutes, 30 minutes, 1, 2 and 4 h. Total RNA was extracted using mirVana™ miRNA isolation kit (Ambion Life Technology, USA). After DNase treatment, 200 ng total RNA was reverse-transcribed using a SuperScript™ III first-strand synthesis system (Invitrogen). PCR was performed on 10 ng of the obtained cDNA (or human genomic DNA as a control) in 25 μl of reaction mixture containing Plantinum® PCR SuperMix High-fidelity (Invitrogen Life Technology, USA), and 0.1 μM of each primer of the appropriate pair.
# (§5) PCR conditions were 94° C. for 3 min; 35 cycles of 94° C. for 30 s, 60° C. for 30 s, and 72° C. for 1 min; followed by 72° C. for 5 min. PCR products were separated on a 2% agarose gel and stained with ethidium bromide.
# RIOK3 [2] = assay: Quantitative RT-PCR of unspliced mRNA in CLL cells; conditions: 10 nM, 4 hours
# Description: (§6) Quantitative RT-PCR using primers specific for each intron quantified unspliced mRNA for DNAJB1 (FIG. 25A) and RIOK3 (FIG. 25B). GAPDH was used for normalization. […] Error bars indicate S.D.
# (§7) CLL cells were treated with 100 nM of FD-895 and PLAD and 10 μM of F-Ara-A for 15 minutes, 1 and 4 h. Normal B and CLL cells were treated with 10, 100, and 1000 nM of FD-895 and PLAD and 10 μM of F-Ara-A for 4 h.
# (§8) Extraction of total RNA and cDNA synthesis were performed as described earlier. Unspliced mRNA was quantified using a 7900HT fast Real Time PCR System (Applied Biosystems). The amounts of unspliced mRNA of DNAJB1, and RIOK3 were determined by SYBR green (Power SYBR Green PCR Master Mix, Applied Biosystems) real-time quantitative RT-PCR using specific primers designed for the intron of each gene (see additional information section at the end).
# (§9) PCR using 0.2 μM of each primer was performed on 20 ng of the obtained cDNA. PCR conditions were 50° C. for 2 min; 95° C. for 10 min; 35 cycles of 94° C. for 20 s, 55° C. for 20 s, followed by 72° C. for 30 s. The mRNA levels were calculated using 2^−ΔΔCT method.^4 GAPDH was used as a control for normalization.
# RIOK3 [3] = assay: Quantitative RT-PCR of unspliced mRNA in normal B cells; conditions: 4 hours
# Description: as §6
# (§10) Normal B cells were purified from buffy coats of healthy volunteers, obtained from San Diego blood bank. Positive isolation with Dynabeads® CD19 pan B and DETACHaBEAD CD19 (Invitrogen Life Technologies, USA) were used to achieve more than 95% purity by flow cytometry analysis.
# as §7, §8, §9
# DNAJB1 [4] = assay: as above; conditions: 4 hours
# Description: as §6, §10, §7, §8, §9
# DNAJB1 [5] = assay: RT-PCR of spliced and unspliced mRNA (intron retention) in CLL cells; conditions: 4 hours, FD-895, PLAD 10, 100 nM, bendamustine 33, 100 μM, F-Ara-A 3, 10, 33 μM
# Description: as §3, §4, §5
# CLL cells = assay: Flow cytometry, % specific induced apoptosis (DiOC6/PI) in primary CLL cells; conditions: 48 hours
# Description: FIG. 20A-20C: FD-895 and PLAD induce apoptosis in CLL cells but not in normal lymphocytes with a TP53 independent activity: Primary leukemia B cells from CLL (FIG. 20A) patient with del (17p) and Tp53 mutation, (FIG. 20B) patient with wild type p53 and sensitive to F-Ara-A and (FIG. 20C) normal lymphocytes from healthy donor were incubated with FD-895, PLAD and F-Ara-A (0, 10, 100, 1000 10,000 nM) for 48 hours.
# as §1
# Peripheral blood mononuclear cells (PBMC) from patients with CLL were obtained from the CLL Research Consortium (CRC) tissue bank. The blood samples were collected after obtaining a written informed consent from the patients under a protocol approved by the institutional review board of The University of California, San Diego. All patients met criteria for CLL.^1 CLL B cells and PBMCs were separated from heparinized venous blood of the B-CLL patients by density gradient centrifugation using Ficoll-Hypaque (GE healthcare) as described earlier.^2 The samples that were used had more than 95% positive cells for CD19 and CD5+, as assessed by flow cytometry. CLL B cells were maintained in RPMI 1640 medium supplemented with 10% FBS, 2 mM L-glutamine, and 100 U/mL of penicillin and 100 μg/mL of streptomycin at 37° C. in an atmosphere of 5% CO2.
# as §2
# [6] = CLL patients with 17p DEL, 100 nM
# [7] = CLL patients with SF3B1 mutation, 100 nM
# [8] = CLL patients with SF3B1 wild, 100 nM
# [9] = CLL patients with Tp53 mutation (so in the source)
# [10] = CLL patients with del (17p), 0-10,000 nM
Compound,apoptosis (% SIA) [1],intron retention/splicing inhibition of GAPDH (GAPDH),splicing inhibition of housekeeping gene GAPDH (GAPDH),unspliced mRNA of RIOK3 (RIOK3 [2]),unspliced mRNA of RIOK3 (RIOK3 [3]),unspliced mRNA of DNAJB1 (DNAJB1 [4]),intron retention/splicing inhibition of DNAJB1 (DNAJB1 [5]),apoptosis (% SIA) (CLL cells; [6]),apoptosis (% SIA) (CLL cells; [7]),apoptosis (% SIA) (CLL cells; [8]),apoptosis (% SIA) (CLL cells; [9]),apoptosis (% SIA) (CLL cells; [10])
CCC(OC)C(C)C1OC1C(O)C(C)/C=C/C=C(\C)C1OC(=O)CC(O)CCC(C)(O)C(OC(C)=O)/C=C/C1C (stereo not drawn) [FD-895],did not induce significant cell death; also recorded: did not show significant apoptosis,no intron retention/splicing inhibition,"Neither FD-895, PLAD nor chemotherapy agents showed splicing inhibition",clear increase in unspliced mRNA,did not show significant increase in unspliced mRNA,did not show significant increase in unspliced mRNA,showed intron retention at low concentration,significant cells death; also recorded: induced apoptosis,significant cells death; also recorded: induced apoptosis,significant cells death,significant death,significant killing
Pladienolide B,did not induce significant cell death; also recorded: did not show significant apoptosis,no intron retention/splicing inhibition,"Neither FD-895, PLAD nor chemotherapy agents showed splicing inhibition",clear increase in unspliced mRNA,did not show significant increase in unspliced mRNA,did not show significant increase in unspliced mRNA,showed intron retention at low concentration,significant cells death; also recorded: induced apoptosis,significant cells death; also recorded: induced apoptosis,significant cells death,significant death,significant killing

# Source: patent US9604973B2, “Anti-cancer polyketide compounds” (priority 2012, dated 2017)
